Experimental data published in patent publication US20140056811A1, “NEW CELL-PENETRATING PEPTIDES AND USES THEREOF” (COMPUGEN LTD., priority 2010, published 2014).
pEC50: −log10 of the molar value. Where two headings read alike, the source gives them in different places. Square brackets hold non-standard residues; d marks the D form. Ends that are not written are not given here. Peptide text beside a SMILES is read from it. * marks the point of attachment. 5FAM = O=C1OC2(c3ccc(O)cc3Oc3cc(O)ccc32)c2ccc(C(=O)*)cc21

Tests used:
[1] = In vitro cytotoxicity by LDH (lactate dehydrogenase) analysis; type: cell-based; conditions: human; 5-FAM labeled peptides, 10 uM (also stated 10 ug/ml), 1 h, 37° C., HeLa cells; read-out: LDH % cytotoxicity
Procedure: In order to assess the in vitro cytotoxicity of the peptides, an LDH (lactate dehydrogenase) analysis was carried out, using LDH kit (Promega G1782), according to manufacturer instructions.
Briefly, HeLa cells from 5 ml of confluent T75 flask were seed in 96 well plate at 10×10^4 cells/mL in 0.1 ml DMEM supplied with 10% Fetal Calf Serum. After 24 hrs incubation with growth medium, wells were replaced with Serum Free growth medium for 24 hrs, and then cells were washed with OptiMEM and replaced with 0.1 ml peptide solution at 10 uM for 1 h at 37° C. 50 ul of supernatant were transferred to the new plate and detected according to Cyto Tox 96, Non Radioactive cytotoxicity assay, (LDH kit Promega G1782). Table 5 presents the results of in vitro cytotoxicity measurements by LDH for S22, S24, S36 and S40 peptides and two positive control peptides; Tat(47-57) and R9. LDH experiment was done with fluorescent labeled (5-FAM) peptides in concentration of […] and the % of cytotoxicity was measured by LDH levels.

[2] = tested on: HeLa cells; type: cell-based; conditions: for cell viability (MTT), FIG. 7: 26.6 ug/ml and 8.88 ug/ml, 16 hours, normalized by untreated cells; for dose response of cell viability (MTT), FIG. 8: average of duplicates
Procedure: In order to examine CPPs capability to deliver into the cell a cargo, the ability of the CPPs to facilitate intracellular cargo delivery of a pro apoptotic peptide—klaklakklaklak (also referred herein as (klaklak)2), was examined. (klaklak)2 is unable to efficiently penetrate cell membranes on its own, and thus using this pro-apoptotic peptide requires efficient intracellular delivery to trigger mitochondrial disruption and mitochondrial-dependent apoptosis. HeLa cells were seeded in DMEM supplemented with 10% fetal Bovine serum (FBS) in 96-well plates, 10,000 cells/well in a total volume of 200 μL 24 hours prior to their treatment with the peptide. Cells were incubated with any one of the CPPs and/or any one of the control peptides ([…]) conjugated to pro-apoptotic peptide (klaklak)2 through a short flexible linker of Gly-Gly (as described in the above peptide synthesis section for SEQ ID NOs: 24-32) for 16 hours under tissue culture conditions. Cell viability was then assessed using MTT[3-(4,5-dimethylthiazol-2-yl)-2,5-diphenyl-2H-tetrazo-liumbromide] assay (Catalog number M5655, Sigma, Israel). MTT reagent was added to cells for 4 hours, following cell lysis using DMSO and absorbance was measured at 492 nm. As positive controls (klaklak)2 conjugated to TAT or R9 were used, corresponding to SEQ ID NOs:26 and 25, respectively. As negative controls (klaklak)2 on its own (SEQ ID NO:31), (klaklak)2 conjugated to N5 ([…]) and peptides not conjugated to (klaklak)2 were used.

Compound | cytotoxicity at 1 h, 10 µM [1] | cell viability (MTT), FIG. 7 ([2]; HeLa cells) | also measured
N=C(N)NCCC[C@H](NC(=O)[C@H](CCCNC(=N)N)NC(=O)[C@H](CCCNC(=N)N)NC(=O)[C@H](CCCNC(=N)N)NC(=O)[C@H](CCCNC(=N)N)NC(=O)[C@H](CCCNC(=N)N)NC(=O)[C@H](CCCNC(=N)N)NC(=O)[C@H](CCCNC(=N)N)NC(=O)[C@H](CCCNC(=N)N)NC(=O)c1ccc2c(c1)C(=O)OC21c2ccc(O)cc2Oc2cc(O)ccc21)C(N)=O [9R, RRRRRRRRR, reference compound] | 2% |  | 
CC(C)C[C@H](NC(=O)[C@H](CCCCN)NC(=O)[C@H](CCCCN)NC(=O)[C@H](CC(C)C)NC(=O)[C@@H](NC(=O)[C@H](CCCCN)NC(=O)[C@H](CCCCN)NC(=O)c1ccc2c(c1)C(=O)OC21c2ccc(O)cc2Oc2cc(O)ccc21)[C@@H](C)O)C(=O)N[C@@H](Cc1c[nH]c2ccccc12)C(=O)N[C@@H](CCCCN)C(=O)N[C@@H](CCCCN)C(=O)N[C@@H](CCCCN)C(=O)N[C@@H](CCCCN)C(=O)N[C@@H](CCCNC(=N)N)C(=O)N[C@@H](CCCCN)C(N)=O [S24, KKTLKKLWKKKKRK] (5FAM-KKTLKKLWKKKKRK-NH2) | 10% |  | 
CC(=O)N[C@@H](CCCCN)C(=O)N[C@@H](CCCCN)C(=O)N[C@H](C(=O)N[C@@H](CC(C)C)C(=O)N[C@@H](CCCCN)C(=O)N[C@@H](CCCCN)C(=O)N[C@@H](CC(C)C)C(=O)N[C@@H](Cc1c[nH]c2ccccc12)C(=O)N[C@@H](CCCCN)C(=O)N[C@@H](CCCCN)C(=O)N[C@@H](CCCCN)C(=O)N[C@@H](CCCCN)C(=O)N[C@@H](CCCNC(=N)N)C(=O)N[C@@H](CCCCN)C(=O)NCC(=O)NCC(=O)N[C@H](CCCCN)C(=O)N[C@H](CC(C)C)C(=O)N[C@H](C)C(=O)N[C@H](CCCCN)C(=O)N[C@H](CC(C)C)C(=O)N[C@H](C)C(=O)N[C@H](CCCCN)C(=O)N[C@H](CCCCN)C(=O)N[C@H](CC(C)C)C(=O)N[C@H](C)C(=O)N[C@H](CCCCN)C(=O)N[C@H](CC(C)C)C(=O)N[C@H](C)C(=O)N[C@H](CCCCN)C(N)=O)[C@@H](C)O [S24-klaklak, KKTLKKLWKKKKRKGG-klaklakklaklak] (Ac-KKTLKKLWKKKKRKGG[dK][dL][dA][dK][dL][dA][dK][dK][dL][dA][dK][dL][dA][dK]-NH2) |  | reduction in cell viability | EC50 ([2]; 16 hr, HeLa cells, unit only from the X axis (log uM concentration), read-out: EC50 of cell viability (MTT), FIG. 9): 8.45 µM
N=C(N)NCCC[C@H](NC(=O)c1ccc2c(c1)C(=O)OC21c2ccc(O)cc2Oc2cc(O)ccc21)C(=O)N[C@@H](CCCNC(=N)N)C(=O)N[C@@H](CCCNC(=N)N)C(=O)N[C@@H](Cc1c[nH]cn1)C(=O)N[C@@H](CCC(N)=O)C(=O)N[C@@H](CCCNC(=N)N)C(=O)N[C@@H](CCCCN)C(=O)N[C@@H](Cc1ccc(O)cc1)C(=O)N[C@@H](CCCNC(=N)N)C(=O)N[C@@H](CCCNC(=N)N)C(=O)N[C@@H](Cc1ccc(O)cc1)C(N)=O [S36, RRRHQRKYRRY] (5FAM-RRRHQRKYRRY-NH2) | 3% |  | 
CC(=O)N[C@@H](CCCNC(=N)N)C(=O)N[C@@H](CCCNC(=N)N)C(=O)N[C@@H](CCCNC(=N)N)C(=O)N[C@@H](Cc1c[nH]cn1)C(=O)N[C@@H](CCC(N)=O)C(=O)N[C@@H](CCCNC(=N)N)C(=O)N[C@@H](CCCCN)C(=O)N[C@@H](Cc1ccc(O)cc1)C(=O)N[C@@H](CCCNC(=N)N)C(=O)N[C@@H](CCCNC(=N)N)C(=O)N[C@@H](Cc1ccc(O)cc1)C(=O)NCC(=O)NCC(=O)N[C@H](CCCCN)C(=O)N[C@H](CC(C)C)C(=O)N[C@H](C)C(=O)N[C@H](CCCCN)C(=O)N[C@H](CC(C)C)C(=O)N[C@H](C)C(=O)N[C@H](CCCCN)C(=O)N[C@H](CCCCN)C(=O)N[C@H](CC(C)C)C(=O)N[C@H](C)C(=O)N[C@H](CCCCN)C(=O)N[C@H](CC(C)C)C(=O)N[C@H](C)C(=O)N[C@H](CCCCN)C(N)=O [S36-klaklak, RRRHQRKYRRYGG-klaklakklaklak] (Ac-RRRHQRKYRRYGG[dK][dL][dA][dK][dL][dA][dK][dK][dL][dA][dK][dL][dA][dK]-NH2) |  | reduction in cell viability | pEC50 ([2]; 16 h): 4.95
CC(C)C[C@H](NC(=O)[C@H](Cc1ccccc1)NC(=O)c1ccc2c(c1)C(=O)OC21c2ccc(O)cc2Oc2cc(O)ccc21)C(=O)N[C@@H](CCCNC(=N)N)C(=O)N[C@@H](CCCNC(=N)N)C(=O)N[C@@H](CCCNC(=N)N)C(=O)N[C@@H](CCCNC(=N)N)C(=O)N[C@@H](CCCNC(=N)N)C(=O)N[C@@H](Cc1ccccc1)C(=O)N[C@H](C(=O)N[C@@H](CCCNC(=N)N)C(=O)N[C@@H](CCC(N)=O)C(=O)N[C@H](C(N)=O)[C@@H](C)O)[C@@H](C)O [S40, FLRRRRRFTRQT] (5FAM-FLRRRRRFTRQT-NH2) | 8% |  | 
FLRRRRRFTRQTGG-klaklakklaklak (Ac-FLRRRRRFTRQTGG[dK][dL][dA][dK][dL][dA][dK][dK][dL][dA][dK][dL][dA][dK]-NH2) [S40-klaklak, S40 conjugated to (klaklak)2 with GG linker] |  | reduction in cell viability | 
KPSARMLLLKGFGKGG-klaklakklaklak (Ac-KPSARMLLLKGFGKGG[dK][dL][dA][dK][dL][dA][dK][dK][dL][dA][dK][dL][dA][dK]-NH2) [S8-klaklak, S8 conjugated to (klaklak)2 with GG linker] |  | reduction in cell viability | 
RRRRRRRRRGG-klaklakklaklak (RRRRRRRRRGG[dK][dL][dA][dK][dL][dA][dK][dK][dL][dA][dK][dL][dA][dK]) [R9-klaklak, positive control R9 conjugated to (klaklak)2 with GG linker, reference compound] |  |  | dose response of cell viability (MTT), FIG. 8 ([2]; 16 hr, HeLa cells): effective dose response curve
VATIKSVSFYTRKGG-klaklakklaklak (Ac-VATIKSVSFYTRKGG[dK][dL][dA][dK][dL][dA][dK][dK][dL][dA][dK][dL][dA][dK]-NH2) [N2-klaklak, negative control peptide N2 conjugated to (klaklak)2 with GG linker, reference compound] |  |  | dose response of cell viability (MTT), FIG. 8 ([2]; 16 hr, HeLa cells): no dose response curve—no effect
YGRKKRRQRRRGG-klaklakklaklak (YGRKKRRQRRRGGKLAKLAKKLAKLAK) [TAT-klaklak, positive control TAT conjugated to (klaklak)2 with GG linker, reference compound] |  |  | dose response of cell viability (MTT), FIG. 8 ([2]; 16 hr, HeLa cells): effective dose response curve
klaklakklaklak (KLAKLAKKLAKLAK; D-amino acids) [(klaklak)2, pro apoptotic peptide used as cargo, reference compound] |  | almost no reduction in cell viability | 
